Patent US20210121482A1, “WITHANOLIDES FOR THE TREATMENT OF CACHEXIA” (University of Louisville Research Foundation, Inc., priority 2019, published 2021)

Columns and labels:
[1] = Body composition by DEXA scan; format: in vivo, mice; details: 2 and 6 mg/kg
Procedure: Analysis of Body Composition: Body fat and lean mass composition, as well as the bone mineral content and density, excluding head region of interest (ROI), were determined by dual-energy X-ray absorptiometry (DEXA) scan using a mouse densitometer (PIXImus 2; Lunar, Madison, Wis., USA). According to the manufacturer's guidelines to calibrate and validate the performance of the apparatus, a “mouse phantom” provided with the machine was scanned before scanning the first mouse. Animals were […] immediately before assessment by DEXA scan. The mouse was then transferred to the disposable PIXImus measuring tray in the prone position with their head in a loosely fitting nose cone to aid positioning. Upon completion of the DEXA scan, approximately five minutes, the mouse was placed on ice to preserve tissue prior to collection.

[2] = test system: inflammatory cytokines and NLRP3 inflammasome markers in TA muscle; experiment: qPCR of TA muscle; format: in vivo, Mus musculus
Procedure: Total RNA Extraction and qPCR: Isolation of total RNA from xenografted tumor samples was performed using an RNeasy® Mini Kit (Qiagen Catalog #74104) according to the manufacturer's instructions. Isolation of total RNA from skeletal muscle was performed using an RNeasy® Fibrous Tissue Mini Kit (Qiagen Catalog #74704) according to the manufacturer's instructions. First strand cDNA was synthesized using 1 μg of purified RNA and a commercially available kit (iScript™ cDNA synthesis, Bio-Rad Catalog #170-8891), Quantification of mRNA expression was performed similar to as previously described (Hindi and Kumar, 2016) using the SYBR Green dye method on a StepOnePlus™ system (Applied Biosystems) using gene-specific primers, as shown in Table 1.

[3] = test system: Caspase 1, NLRP3, IL-1β, IL-18, HO-1; experiment: IHC of NLRP3 inflammasome proteins in tumor samples; format: in vivo, mice
Procedure: Immunohistochemistry of Tumor Tissue: For the detection of various proteins, 10 μm thick sections were made from the midsection of tumor samples. A hydrophobic boundary was drawn around the sections and then they were fixed in 3.7% formaldehyde solution for 10 minutes. The slides were washed three times with 1×PBS for 5 minutes each. The sections were then blocked in 2% BSA in PBS for 30 minutes. The sections were then incubated with primary antibodies (1:100 dilution) overnight in a humidity chamber at 4° C. The sections were then washed three times with 1×PBS for 5 minutes. The slides were incubated in appropriate secondary antibodies (1:2000 dilution) for 45-60 minutes. Sections were counterstained with DAPI (1:2500 dilution) for 5 minutes to visualize nuclei. Slides were then washed twice in 1×PBS for 5 minutes, and then mounted for visualization. Nonspecific background staining was determined by performing the above protocol with omitting the inclusion of the primary antibodies. Refer to Table 2 for a complete list of antibodies utilized.

[4] = test system: A2780 ovarian cancer cells; experiment: Tumor burden: free peritoneal tumors and bilateral ovaries (Example 3); format: in vivo, mice; details: tumor-bearing
Description: Experimental tumors were induced as described in Example 2.
No significant difference in tumor weight between the two doses of WFA was observed (p=0.65).
The IP tumors were metastasized to select organs/anatomic regions known to be highly estrogen-responsive, including free-peritoneal tumors shown in FIG. 19D and bilateral ovaries shown in FIG. 19E.

[5] = test system: left ventricular systolic and diastolic function; experiment: Echocardiography; format: in vivo, mice
Procedure: Left ventricular (LV) systolic and diastolic function were evaluated by transthoracic echocardiography using a Vevo 3100 system and a 40 MHz linear probe (FUJIFILM VisualSonics Inc., Toronto, Ontario, Canada). Mice were anesthetized with isoflurane, maintained at an equivalent surgical depth of anesthesia (induction chamber at 5% with 1.5-2.0 L/min 02 flow, followed by 1.5-2.0% with 1.5-2.0 L/min 02 flow), and placed in the supine position. The skin over the thorax was shaved and then briefly subjected to a depilatory cream. Body temperature was maintained at 37-38° C., and heart rate was monitored using the accompanying Vevo Imaging Station. Briefly, variables that represent diastolic function (E/A ratio, isovolumetric relaxation time (IVRT), and (E/e′) were measured during the resting condition from an apical four-chamber view with conventional pulsed wave tissue Doppler. The E/A ratio was calculated from the peak velocity flow in early diastole (the E wave) to the peak velocity flow in late diastole caused by atrial contraction (the A wave) during resting conditions.
An image was captured along the parasternal short axis and analyzed offline using the Vevo® Lab software. Standard measures of LV structure [i.e., LV internal diameter (LVID) and LV posterior wall thickness (PWT)] and function [i.e., stroke volume (SV), cardiac output (CO), and ejection fraction (EF)] were obtained along the parasternal short axis during resting and stress conditions. In M-mode, wall thickness and chamber dimensions across the sample line were used to calculate anatomical and functional parameters. End-diastolic and end-systolic volumes were estimated from LVID […]. Results from five cardiac cycles during expiration were averaged together and used for between-group and within-group comparisons. Continuous ECG and heart rate monitoring were performed over a period of one hour while the other measurements were collected.

Ang II = experiment: Plasma Ang II ELISA; format: in vivo, mice; details: tumor-bearing
Procedure: Plasma Ang II levels were measured with an enzyme-linked immunosorbent assay (ELISA). Blood samples were collected in tubes containing ethylenediaminetetraacetic acid (EDTA) (25 mM), o-phenanthroline (0.44 mM), pepstatin A (0.12 mM), and p-hydroxymercuribenzoic acid (1 mM) and then centrifuged at 1200×g for 10 min. The plasma was collected and stored at −80° C. until further processing. Ang II levels were quantified by using a commercially available ELISA kit according to the manufacturer's instructions (Sigma-Aldrich Catalog #MAK190).

SKOV3 = SKOV3 cells; cited from earlier work
[6] = test system: A2780 ovarian cancer xenograft; experiment: Survival and tolerability, A2780 xenograft mice (Example 1)
Procedure: Tumor-bearing groups received an IP injection of 1.0×10^6 low passage A2780 cells suspended in 100 μl sterile PBS.
Graphical Display and Statistical Analyses: The majority of the results were expressed as box-and-whisker plots with the box comprised of the first, second, and third quartiles, and the lower and upper whiskers corresponding to the minimum and maximum values, respectively, to display the entire range of data. A Kaplan-Meier curve was used for the survival analysis. Statistical analysis of the data was performed using one-way analysis of variance (ANOVA) followed by Tukey's Honestly Significant Difference Test (HSDT) post hoc analysis or the Mantel-Cox log-rank test to determine statistically significant differences between groups with GraphPad Prism 8.0.1 software for Mac (La Jolla, Calif., USA). A value of P<0.05 was considered statistically significant, unless otherwise specified.

[7] = 2 mg/kg, vs vehicle treated group
[8] = 6 mg/kg, vs vehicle treated group
[9] = tumor-bearing, 2 and 4 mg/kg, vs tumor-bearing vehicle

CC1=C(CO)C(=O)O[C@@H]([C@@H](C)[C@H]2CC[C@H]3[C@@H]4C[C@H]5O[C@]56[C@@H](O)C=CC(=O)[C@]6(C)[C@H]4CC[C@]23C)C1 [WFA, (4β,5β,6β,22R)-4,27-Dihydroxy-5,6:22,26-diepoxyergosta-2,24-diene-1,26-dione]
bone mineral density or content [1]: No significant differences
proportion of lean tissue to body weight ([1]; all tumor-bearing groups vs control): significant increase in the proportion of lean tissue to body weight
proportion of adipose tissue to whole body weight ([1]; vs vehicle treated group): attenuation of adipose tissue
relative mRNA levels of TNFα, IFNγ, IL-6, MIP-2 in TA muscle [2, 7]: significantly reduced
transcript levels of HO-1 in TA muscle [2, 7]: increased compared to the vehicle treated group
transcript levels of NLRP3, CASP1, IL-1β, IL-18 in TA muscle [2, 7]: significant reduction in all tested NLRP3 inflammasome transcript levels
relative mRNA levels of TNFα, IFNγ, IL-6, MIP-2 in TA muscle ([2]; 6 mg/kg, vs control and WFA 2 mg/kg groups): robust increase in the expression of select proinflammatory cytokines
transcript levels of CASP1 and IL-1β in TA muscle ([2]; 6 mg/kg, vs control group): significantly increased
transcript levels of HO-1 in TA muscle ([2]; 6 mg/kg, vs control or vehicle treated groups): no significant changes in HO-1 expression
relative mRNA levels of NLRP3 and IL-18 in TA muscle [2, 8]: significantly reduced
relative transcript levels of IFNγ and MIP-2 in TA muscle [2, 8]: significantly reduced
relative transcript levels of TNFα and IL-6 in TA muscle ([2]; 6 mg/kg, vs vehicle treated group (p=0.09 and <0.0001)): increased
expression of IL-1β, IL-18 and HO-1 in tumor (IHC) ([3]; 2 mg/kg): drastically lowered the expression of IL-1β and IL-18 and increased the expression of HO-1
expression of IL-1β, IL-18 and HO-1 in tumor (IHC) ([3]; 6 mg/kg): intermediate expression of all three proteins
Caspase 1 and NLRP3 staining in tumor (IHC) ([3]; 2 and 6 mg/kg, vs vehicle treated group): reduction in Caspase 1 and NLRP3 staining
normalized weights of the bilateral ovaries ([4]; WFA 2 mg/kg): 10.38±1.32 mg/g IBW
weight of visible tumors ([4]; WFA 2 mg/kg): 1.6 ± 0.19 g
normalized weights of the bilateral ovaries ([4]; WFA 4 mg/kg): 12.05±2.09 mg/g IBW
weight of visible tumors ([4]; WFA 4 mg/kg): 1.9 ± 0.35 g
isovolumetric relaxation time (IVRT) ([5]; WFA vs vehicle within tumor-free or tumor-bearing groups): no significant differences within the tumor-free or tumor-bearing groups
cardiac output (CO) ([5]; tumor-bearing mice, WFA treatment): similarly normalized
LV mass [5, 9]: significant increase in LV mass
diastolic dysfunction (E/A ratio, E/e′ ratio) [5, 9]: partially improved
fractional shortening (FS) ([5]; tumor-bearing, WFA 2 mg/kg): 57.8±3.6%
fractional shortening (FS) ([5]; tumor-bearing, WFA 4 mg/kg): 55.3±3.2%
diastolic function ([5]; tumor-free animals): did not affect diastolic function in tumor-free animals
HR and CO ([5]; tumor-free mice, WFA treatment): did not have any effect on HR or CO in tumor-free mice
heart rate ([5]; tumor-free or tumor-bearing WFA-treated groups vs tumor-free vehicle): No significant differences in heart rate
LV mass ([5]; tumor-free, vehicle vs either dose of WFA): No significant difference in LV mass
plasma Ang II levels (Ang II; WFA 2 mg/kg): 2.15 ± 0.015 ng/mL
plasma Ang II levels (Ang II; WFA 4 mg/kg): 2.07 ± 0.08 ng/mL
cell cycle arrest and apoptosis (SKOV3): induces cell cycle arrest and the induction of apoptosis
survival (Kaplan-Meier) ([6]; 2 mg/kg, vs WFA 6 mg/kg and vehicle treated groups): higher survival rate
toxicity of high dose ([6]; 6 mg/kg IP every three days, tumor-bearing NSG mice): may be a lethal dose
survival (Kaplan-Meier) ([6]; 6 mg/kg, vs vehicle treated group (p=0.06)): trend towards an increase in survival
